Assay results: patent EP4744680A1, “TARGETED CHEMICAL DRUG AND PREPARATION METHOD THEREFOR, PHARMACEUTICAL COMPOSITION, AND USE OF TARGETED CHEMICAL DRUG” (Bai Yao Zhi Da (Beijing) Nanobio Technology Co., Ltd., priority 2023, dated 2025)

How the values were obtained:
U251-RFP human glioma = assay: In-vivo efficacy study in the U251-RFP human glioma orthotopic mouse model (drug of Example 9); design: species or system mouse (BALB/c nude); conditions: 15mg/Kg intraperitoneal daily for 4 weeks
Source text: 2.Dosing regimen: Table 41

[1] = Body weight and general condition in the U251 study; assay type: in vivo, mouse (BALB/c nude); conditions: 15mg/Kg intraperitoneal daily for 4 weeks
Protocol: The relationship between body weight change and the dosing regimen is recorded.Survival and health status are also monitored, including activity levels and food intake during the dosing period. • c) Tumor and Organ Imaging: At the end of the dosing period, mice are euthanized, and their brain, heart, liver, spleen, lungs, and kidneys are excised.

With `Cn1nnc2c(C(N)=O)ncn2c1=O` [Temozolomide] as the molecule, how does the “Tumor growth inhibition rate (TGI, %) at different days post-inoculation” value (U251-RFP human glioma; Day 6) read?
The value was 9.9%.

And the “Tumor growth inhibition rate (TGI, %) at different days post-inoculation” value (U251-RFP human glioma; Day 10)?
Its value is 13.2%.

What about the “Tumor growth inhibition rate (TGI, %) at different days post-inoculation” value (U251-RFP human glioma; Day 13) of the same molecule?
The value was 39.6%.

And the “Tumor growth inhibition rate (TGI, %) at different days post-inoculation” value (U251-RFP human glioma; Day 17)?
The value was 65.6%.

What about the “Tumor growth inhibition rate (TGI, %) at different days post-inoculation” value (U251-RFP human glioma; Day 20) of the same molecule?
The value was 73.7%.

And the “Tumor growth inhibition rate (TGI, %) at different days post-inoculation” value (U251-RFP human glioma; Day 24)?
Its value is 73.7%.

What about the “Tumor growth inhibition rate (TGI, %) at different days post-inoculation” value (U251-RFP human glioma; Day 27) of the same molecule?
The value was 74.2%.

What about the “Tumor weight” value (U251-RFP human glioma; end of dosing period) of the same molecule?
Its value is 0.002 ± 0.001 g.

What about the IRTW% (U251-RFP human glioma; tumor weight inhibition rate) of the same molecule?
The IRTW% was 98.34%.

And the “Body weight change on Day 27 compared to pre-dosing” value [1]?
Its value is “+12%”.
